Data from US6737383B1, “Herbicidal oxadiazolidines” (priority 1999, dated 2004).

Columns and labels:
[1] = system: bedstraw; assay: Test B pre/postemergence bedstraw; format: in vivo, Galium aparine
In short: (§1)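 Response is a visual 0-to-10 score relative to untreated plants, where 0 means no effect and 10 means complete control, taken twelve to sixteen days after application. Treatments went onto soil at planting and onto foliage of 1- to 4-leaf plants, using a surfactant-containing non-phytotoxic solvent.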

[2] = system: blackgrass; assay: Test B pre/postemergence blackgrass; format: in vivo, Alopecurus myosuroides
In short: as §1

[3] = system: surinam grass; assay: Test B pre/postemergence surinam grass; format: in vivo, Brachiaria decumbens
In short: as §1

[4] = system: cocklebur; assay: Test B pre/postemergence cocklebur; format: in vivo, Xanthium strumarium
In short: as §1

[5] = system: giant foxtail; assay: Test B pre/postemergence giant foxtail; format: in vivo, Setaria faberii
In short: as §1

[6] = system: morningglory; assay: Test B pre/postemergence morningglory; format: in vivo, Ipomoea hederacea
In short: as §1

[7] = system: pigweed; assay: Test B pre/postemergence pigweed; format: in vivo, Amaranthus retroflexus
In short: as §1

[8] = system: rape; assay: Test B pre/postemergence rape; format: in vivo, Brassica napus
In short: as §1

[9] = system: soybean; assay: Test B pre/postemergence soybean; format: in vivo, Glycine max
In short: as §1

[10] = system: velvetleaf; assay: Test B pre/postemergence velvetleaf; format: in vivo, Abutilon theophrasti
In short: as §1

[11] = system: wheat; assay: Test B pre/postemergence wheat; format: in vivo, Triticum aestivum
In short: as §1

[12] = system: wild oat; assay: Test B pre/postemergence wild oat; format: in vivo, Avena fatua
In short: as §1

[13] = system: purple nutsedge; assay: Test B pre/postemergence purple nutsedge; format: in vivo, Cyperus rotundus
In short: as §1

[14] = system: smallflower flatsedge; assay: Test B flood test smallflower flatsedge; format: in vivo, Cyperus difformis
In short: (§2)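 Each value is a visual injury score relative to controls, with 10 meaning complete control and 0 no effect. Evaluation took place twelve to sixteen days after the 2-leaf-stage plants were treated and kept in the greenhouse.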

[15] = system: duck salad; assay: Test B flood test duck salad; format: in vivo, Heteranthera limosa
In short: as §2

[16] = system: bamyardgrass; assay: Test B flood test barnyardgrass; format: in vivo, Echinochloa crus-galli
In short: as §2

[17] = Postemergence, Rate 62 g/ha, scale 0 to 10, 0 is no effect, 10 is complete control
[18] = Postemergence, Rate 250 g/ha, scale 0 to 10, 0 no effect, 10 complete control
[19] = Preemergence, Rate 62 g/ha, scale 0 to 10 (0 no effect, 10 complete control)
[20] = Preemergence, Rate 125 g/ha, scale 0 to 10 (0 no effect, 10 complete control)
[21] = Preemergence, Rate 250 g/ha, scale of 0 to 10 where 0 is no effect and 10 is complete control
[22] = Preemergence, Rate 500 g/ha, scale 0 (no effect) to 10 (complete control)
[23] = Rate 125 g/ha, Postemergence, scale 0 to 10, 0 no effect, 10 complete control
[24] = Rate 500 g/ha, Postemergence, scale 0 to 10, 0 no effect, 10 complete control
[25] = Rate 62 g/ha, headed Pre-emergence (flood test species), scale 0 to 10 (0 no effect, 10 complete control)
[26] = Rate 125 g/ha, Pre-emergence, flood test species, scale 0 to 10 where 0 is no effect and 10 is complete control
[27] = Rate 250 g/ha, headed Pre-emergence (flood test species), scale 0 to 10 (0 no effect, 10 complete control)
[28] = Rate 500 g/ha, headed Pre-emergence (flood test species), scale 0 to 10 (0 no effect, 10 complete control)

`Cc1cccc(C)c1-n1c(=O)on(C(=O)N(Cc2ccccc2)C(C)C)c1=O` [Compound 69] was tested. Which “Bedstraw plant response rating” value [1, 17] did it give?
The value was 0.

What about the “Bedstraw plant response rating” value [1, 18] of the same molecule?
The value was 5.

And the “Bedstraw plant response rating” value [1, 19]?
The value was 0.

What about the “Plant response rating, Bedstraw” value [1, 20] of the same molecule?
The value was 0.

What about the “Plant response rating, Bedstraw” value [1, 21] of the same molecule?
Its value is 0.

And the “Bedstraw plant response rating” value [1, 22]?
Its value is 0.

What about the “Bedstraw plant response rating” value [1, 23] of the same molecule?
Its value is 4.

What about the “Bedstraw plant response rating” value [1, 24] of the same molecule?
The value was 6.

And the “Blackgrass plant response rating” value [2, 17]?
Its value is 0.

And the “Blackgrass plant response rating” value [2, 18]?
Its value is 0.

And the “Blackgrass plant response rating” value [2, 19]?
Its value is 0.

What about the “Plant response rating, Blackgrass” value [2, 20] of the same molecule?
Its value is 0.

And the “Plant response rating, Blackgrass” value [2, 21]?
The value was 0.

What about the “Blackgrass plant response rating” value [2, 22] of the same molecule?
Its value is 0.

What about the “Blackgrass plant response rating” value [2, 23] of the same molecule?
The value was 0.

What about the “Blackgrass plant response rating” value [2, 24] of the same molecule?
Its value is 0.

What about the “B. signalgrass plant response rating” value [3, 17] of the same molecule?
The value was 0.

What about the “B. signalgrass plant response rating” value [3, 18] of the same molecule?
The value was 0.

And the “B. signalgrass plant response rating” value [3, 19]?
The value was 0.

What about the “Plant response rating, B. signalgrass” value [3, 20] of the same molecule?
The value was 0.

And the “Plant response rating, B. signalgrass” value [3, 21]?
Its value is 0.

And the “B. signalgrass plant response rating” value [3, 22]?
The value was 0.

What about the “B. signalgrass plant response rating” value [3, 23] of the same molecule?
The value was 0.

What about the “Cocklebur plant response rating” value [4, 17] of the same molecule?
The value was 0.

And the “Cocklebur plant response rating” value [4, 18]?
Its value is 0.

What about the “Cocklebur plant response rating” value [4, 19] of the same molecule?
The value was 0.

What about the “Plant response rating, Cocklebur” value [4, 20] of the same molecule?
The value was 0.

And the “Plant response rating, Cocklebur” value [4, 21]?
Its value is 0.

What about the “Cocklebur plant response rating” value [4, 22] of the same molecule?
Its value is 0.

And the “Cocklebur plant response rating” value [4, 23]?
Its value is 0.

What about the “Cocklebur plant response rating” value [4, 24] of the same molecule?
Its value is 0.

What about the “Giant foxtail plant response rating” value [5, 17] of the same molecule?
The value was 0.

And the “Giant foxtail plant response rating” value [5, 18]?
The value was 0.

What about the “Giant foxtail plant response rating” value [5, 19] of the same molecule?
Its value is 0.

What about the “Plant response rating, Giant foxtail” value [5, 20] of the same molecule?
The value was 0.

And the “Plant response rating, Giant foxtail” value [5, 21]?
The value was 4.

What about the “Giant foxtail plant response rating” value [5, 22] of the same molecule?
Its value is 4.

What about the “Giant foxtail plant response rating” value [5, 23] of the same molecule?
The value was 0.

And the “Giant foxtail plant response rating” value [5, 24]?
The value was 1.

And the “Morningglory plant response rating” value [6, 17]?
Its value is 0.

And the “Morningglory plant response rating” value [6, 18]?
The value was 0.

What about the “Morningglory plant response rating” value [6, 19] of the same molecule?
The value was 0.

What about the “Plant response rating, Morningglory” value [6, 20] of the same molecule?
Its value is 0.

What about the “Plant response rating, Morningglory” value [6, 21] of the same molecule?
Its value is 0.

What about the “Morningglory plant response rating” value [6, 22] of the same molecule?
Its value is 0.

And the “Morningglory plant response rating” value [6, 23]?
Its value is 0.

What about the “Morningglory plant response rating” value [6, 24] of the same molecule?
The value was 0.

And the “Redroot pigweed plant response rating” value [7, 17]?
Its value is 0.

And the “Redroot pigweed plant response rating” value [7, 18]?
Its value is 0.

What about the “Redroot pigweed plant response rating” value [7, 19] of the same molecule?
The value was 0.

What about the “Plant response rating, Redroot pigweed” value [7, 20] of the same molecule?
Its value is 0.

And the “Plant response rating, Redroot pigweed” value [7, 21]?
The value was 0.

And the “Redroot pigweed plant response rating” value [7, 22]?
The value was 0.

What about the “Redroot pigweed plant response rating” value [7, 23] of the same molecule?
Its value is 0.

What about the “Redroot pigweed plant response rating” value [7, 24] of the same molecule?
The value was 0.

What about the “Rape plant response rating” value [8, 17] of the same molecule?
Its value is 0.

What about the “Rape plant response rating” value [8, 18] of the same molecule?
The value was 0.

What about the “Rape plant response rating” value [8, 19] of the same molecule?
The value was 0.

What about the “Plant response rating, Rape” value [8, 20] of the same molecule?
Its value is 0.

What about the “Plant response rating, Rape” value [8, 21] of the same molecule?
Its value is 0.

And the “Rape plant response rating” value [8, 22]?
Its value is 0.

What about the “Rape plant response rating” value [8, 23] of the same molecule?
The value was 0.

And the “Rape plant response rating” value [8, 24]?
Its value is 0.

And the “Soybean plant response rating” value [9, 17]?
The value was 2.

What about the “Soybean plant response rating” value [9, 18] of the same molecule?
The value was 2.

And the “Soybean plant response rating” value [9, 19]?
The value was 0.

And the “Plant response rating, Soybean” value [9, 20]?
The value was 0.

And the “Plant response rating, Soybean” value [9, 21]?
The value was 0.

And the “Soybean plant response rating” value [9, 22]?
Its value is 0.

And the “Soybean plant response rating” value [9, 23]?
Its value is 2.

And the “Soybean plant response rating” value [9, 24]?
The value was 3.

What about the “Velvetleaf plant response rating” value [10, 17] of the same molecule?
Its value is 0.

What about the “Velvetleaf plant response rating” value [10, 18] of the same molecule?
Its value is 0.

What about the “Velvetleaf plant response rating” value [10, 19] of the same molecule?
The value was 0.

What about the “Plant response rating, Velvetleaf” value [10, 20] of the same molecule?
Its value is 0.

And the “Plant response rating, Velvetleaf” value [10, 21]?
The value was 0.

What about the “Velvetleaf plant response rating” value [10, 22] of the same molecule?
Its value is 0.

And the “Velvetleaf plant response rating” value [10, 23]?
The value was 0.

And the “Velvetleaf plant response rating” value [10, 24]?
The value was 2.

What about the “Wheat plant response rating” value [11, 17] of the same molecule?
The value was 0.

And the “Wheat plant response rating” value [11, 18]?
Its value is 0.

What about the “Wheat plant response rating” value [11, 19] of the same molecule?
The value was 0.

And the “Plant response rating, Wheat” value [11, 20]?
Its value is 0.

What about the “Plant response rating, Wheat” value [11, 21] of the same molecule?
The value was 0.

What about the “Wheat plant response rating” value [11, 22] of the same molecule?
Its value is 0.

What about the “Wheat plant response rating” value [11, 23] of the same molecule?
The value was 0.

And the “Wheat plant response rating” value [11, 24]?
Its value is 0.

What about the “Wild oats plant response rating” value [12, 17] of the same molecule?
Its value is 0.

And the “Wild oats plant response rating” value [12, 18]?
The value was 0.

What about the “Wild oats plant response rating” value [12, 19] of the same molecule?
The value was 0.

What about the “Plant response rating, Wild oats” value [12, 20] of the same molecule?
The value was 0.

What about the “Plant response rating, Wild oats” value [12, 21] of the same molecule?
Its value is 0.

What about the “Wild oats plant response rating” value [12, 22] of the same molecule?
The value was 0.

What about the “Wild oats plant response rating” value [12, 23] of the same molecule?
Its value is 0.

And the “Wild oats plant response rating” value [12, 24]?
The value was 0.

What about the “Nutsedge plant response rating” value [13, 17] of the same molecule?
The value was 0.

And the “Nutsedge plant response rating” value [13, 18]?
The value was 0.

What about the “Nutsedge plant response rating” value [13, 19] of the same molecule?
Its value is 0.

What about the “Plant response rating, Nutsedge” value [13, 20] of the same molecule?
Its value is 0.

What about the “Plant response rating, Nutsedge” value [13, 21] of the same molecule?
The value was 0.

And the “Nutsedge plant response rating” value [13, 22]?
Its value is 0.

What about the “Nutsedge plant response rating” value [13, 23] of the same molecule?
Its value is 0.

And the “Nutsedge plant response rating” value [13, 24]?
The value was 0.

And the “S. Flatsedge plant response rating” value [14, 25]?
Its value is 0.

And the “S. Flatsedge plant response rating” value [14, 26]?
Its value is 0.

And the “S. Flatsedge plant response rating” value [14, 27]?
The value was 0.

What about the “Plant response rating, S. Flatsedge” value [14, 28] of the same molecule?
The value was 0.

And the “Ducksalad plant response rating” value [15, 25]?
Its value is 0.

And the “Ducksalad plant response rating” value [15, 26]?
The value was 0.

And the “Ducksalad plant response rating” value [15, 27]?
The value was 0.

And the “Plant response rating, Ducksalad” value [15, 28]?
Its value is 0.

What about the “Barnyardgrass plant response rating” value [16, 25] of the same molecule?
The value was 0.

And the “Barnyardgrass plant response rating” value [16, 26]?
Its value is 0.

And the “Barnyardgrass plant response rating” value [16, 27]?
The value was 0.

And the “Plant response rating, Barnyardgrass” value [16, 28]?
The value was 0.
